SMILES strings stand for the structures. Peptide text beside a SMILES is read from it.

The target in one assay is T1, CRF2R (Homo sapiens, UniProt Q13324).
T1 sequence (Q13324 1-411): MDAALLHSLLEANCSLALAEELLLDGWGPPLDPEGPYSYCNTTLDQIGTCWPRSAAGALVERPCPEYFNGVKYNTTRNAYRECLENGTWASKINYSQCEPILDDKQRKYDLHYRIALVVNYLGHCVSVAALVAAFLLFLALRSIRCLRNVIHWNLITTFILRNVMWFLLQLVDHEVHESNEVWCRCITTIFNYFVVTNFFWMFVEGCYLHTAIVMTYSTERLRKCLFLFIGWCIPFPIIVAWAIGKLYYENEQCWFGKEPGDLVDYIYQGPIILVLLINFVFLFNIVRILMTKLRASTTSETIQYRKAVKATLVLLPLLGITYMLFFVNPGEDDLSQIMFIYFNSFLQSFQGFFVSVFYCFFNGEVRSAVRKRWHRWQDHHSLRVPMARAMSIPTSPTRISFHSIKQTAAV
In words: CRF2R agonist activation (EC50 / Emax), called comparative CRF binding. The class given is cell-based. As to conditions: for Emax: read-out: CRF2R Emax. The procedure, abridged: (§1)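 Read-out is Gαs-driven cAMP induction, quantified directly in lysates or through CRE-reporter gene expression, after treating CRF1R- or CRF2R-expressing cells with peptide. Vehicle-treated cells serve as the comparison.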

In a further assay the target is T2, CRF1R (Homo sapiens, UniProt P34998).
T2 sequence (P34998 24-415): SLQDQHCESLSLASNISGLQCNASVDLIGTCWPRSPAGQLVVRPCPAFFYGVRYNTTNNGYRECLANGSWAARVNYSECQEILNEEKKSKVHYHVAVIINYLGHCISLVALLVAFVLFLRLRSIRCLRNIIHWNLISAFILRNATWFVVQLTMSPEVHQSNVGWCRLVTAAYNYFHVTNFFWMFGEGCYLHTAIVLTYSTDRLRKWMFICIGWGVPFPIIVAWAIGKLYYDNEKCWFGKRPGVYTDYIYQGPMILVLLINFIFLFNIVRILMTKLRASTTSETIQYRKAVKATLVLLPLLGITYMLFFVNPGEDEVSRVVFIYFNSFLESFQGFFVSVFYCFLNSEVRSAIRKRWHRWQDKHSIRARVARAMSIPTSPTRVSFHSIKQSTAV
In words: CRF1R agonist activation (EC50 / Emax), called comparative CRF binding. The class given is cell-based. As to conditions: for Emax: read-out: CRF1R Emax. The procedure, abridged: as §1

Regarding `CC[C@H](C)[C@H](NC(=O)[C@H](C)NC(=O)[C@H](CC(N)=O)NC(=O)[C@H](CCC(N)=O)NC(=O)[C@H](CCC(=O)O)NC(=O)[C@H](C)NC(=O)[C@H](CCCNC(=N)N)NC(=O)[C@H](CCC(=O)O)NC(=O)[C@H](CCCNC(=N)N)NC(=O)[C@H](CCC(N)=O)NC(=O)[C@H](CO)NC(=O)[C@H](CCC(N)=O)NC(=O)[C@@H](NC(=O)[C@H](CCCNC(=N)N)NC(=O)[C@H](C)NC(=O)[C@H](CC(C)C)NC(=O)[C@H](CCC(=O)O)NC(=O)[C@H](CC(C)C)NC(=O)[C@H](CC(C)C)NC(=O)[C@@H](NC(=O)[C@H](CCCNC(=N)N)NC(=O)[C@H](CC(C)C)NC(=O)[C@H](CC(C)C)NC(=O)[C@H](CC(C)C)NC(=O)[C@H](CC(C)C)NC(=O)[C@@H]1CCCN1C(=O)[C@H](CC(C)C)NC(=O)[C@H](CC(=O)O)NC(=O)[C@@H](NC(=O)[C@H](CO)NC(=O)[C@H](CC(C)C)NC(=O)[C@H](CO)NC(=O)[C@@H]1CCCN1C(=O)[C@H](CC(N)=O)NC(=O)[C@@H](N)CC(=O)O)[C@@H](C)CC)[C@@H](C)O)[C@@H](C)O)C(=O)N[C@H](C(=O)N[C@@H](Cc1ccccc1)C(=O)N[C@@H](C)C(=O)N[C@@H](CO)C(=O)N[C@H](C(N)=O)C(C)C)[C@@H](C)CC` [compound 174] (H-DNPSLSIDLPLLLLRTLLELARTQSQRERAEQNAIIFASV-NH2; N-terminus assumed), the Emax was 97.2% at CRF2R and 29.1% on CRF1R.

As to `CC[C@H](C)[C@H](NC(=O)[C@H](C)NC(=O)[C@H](CC(N)=O)NC(=O)[C@H](CCC(N)=O)NC(=O)[C@H](CCC(=O)O)NC(=O)[C@H](C)NC(=O)[C@H](CCCNC(=N)N)NC(=O)[C@H](CCC(=O)O)NC(=O)[C@H](CCCNC(=N)N)NC(=O)[C@H](CCC(N)=O)NC(=O)[C@H](CO)NC(=O)[C@H](CCC(N)=O)NC(=O)[C@@H](NC(=O)[C@H](CCCNC(=N)N)NC(=O)[C@H](C)NC(=O)[C@H](CC(C)C)NC(=O)[C@H](CCC(=O)O)NC(=O)[C@H](CC(C)C)NC(=O)[C@H](CC(C)C)NC(=O)[C@@H](NC(=O)[C@H](CCCNC(=N)N)NC(=O)[C@H](CC(C)C)NC(=O)[C@H](CC(C)C)NC(=O)[C@@H](NC(=O)[C@H](CC(C)C)NC(=O)[C@@H]1CCCN1C(=O)[C@H](CC(C)C)NC(=O)[C@H](CC(=O)O)NC(=O)[C@@H](NC(=O)[C@H](CO)NC(=O)[C@H](CC(C)C)NC(=O)[C@H](CO)NC(=O)[C@@H]1CCCN1C(=O)[C@H](CC(N)=O)NC(=O)[C@@H](N)CC(=O)O)[C@@H](C)CC)[C@@H](C)CC)[C@@H](C)O)[C@@H](C)O)C(=O)N[C@H](C(=O)N[C@@H](Cc1ccccc1)C(=O)N[C@@H](C)C(=O)N[C@@H](CO)C(=O)N[C@H](C(N)=O)C(C)C)[C@@H](C)CC` [compound 175] (H-DNPSLSIDLPLILLRTLLELARTQSQRERAEQNAIIFASV-NH2; N-terminus assumed), the figures for the concentration giving a half-maximal response (EC50) on CRF2R (read-out: CRF2R EC50) and at CRF1R (read-out: CRF1R EC50) were 5.42 nM and at least 1000 nM, respectively. For the same molecule, the Emax was determined as 92.2% at CRF2R and 34.8% at CRF1R.

The term Emax denotes the maximal effect, on the per cent scale that the assay sets. For orientation: EC50 means the concentration needed to bring the measured effect to its halfway point.

The values are drawn from patent publication US6936585B2, “Corticotropin releasing factor 2 receptor agonists” (priority 2002, dated 2005).
